Data reported in PMC7694207, “Functional Characterization of the N-Acetylmuramyl-L-Alanine Amidase, Ami1, from Mycobacterium abscessus” (Cells, 2020).
Non-standard residues stand in square brackets, D forms with d. Residues, ends and D or L forms follow the SMILES beside them.

How the values were obtained:
Ami1Mab [1] = biological target: T1, Ami1Mab (Mycobacteroides abscessus, UniProt B1MFL7); test: X-ray co-crystal structure, […] Å; type: binding; details: co-crystallized with 5 mM dipeptide; active site near Zn2+
T1 construct: gene MAB_0318c; first 40 residues (signal peptide) removed; pET151 N-terminal tag cut by TEV; E. coli BL21(DE3) pRARE2; zinc enzyme

Ami1Mab [2] = biological target: T1, Ami1Mab; test: TLC-based muramyl-dipeptide hydrolysis assay; type: biochemical; details: substrate MDP; PBS; 37 °C
Ami1Mab [3] = biological target: T1, Ami1Mab; test: TLC-based muramyl-dipeptide hydrolysis assay; type: biochemical; details: substrate MDP; PBS; 37 °C; compound numbering as in Results
Ami1Mab [4] = biological target: T1, Ami1Mab; test: TLC-based muramyl-dipeptide hydrolysis assay; type: biochemical; details: substrate MDP; PBS; 37 °C; compound numbering as in Results; remark: listed apart in the source
Ami1Mab [5] = biological target: T1, Ami1Mab; test: TLC hydrolysis assay, ninhydrin; type: biochemical; details: PBS, 37 °C, 30 min; Zn2+-dependent
Ami1Mtb = biological target: T2, Ami1Mtb (Mycobacterium tuberculosis, UniProt I6Y4D2); type: biochemical
T2 construct: gene Rv3717
T2 sequence (I6Y4D2 whole entry, looked up): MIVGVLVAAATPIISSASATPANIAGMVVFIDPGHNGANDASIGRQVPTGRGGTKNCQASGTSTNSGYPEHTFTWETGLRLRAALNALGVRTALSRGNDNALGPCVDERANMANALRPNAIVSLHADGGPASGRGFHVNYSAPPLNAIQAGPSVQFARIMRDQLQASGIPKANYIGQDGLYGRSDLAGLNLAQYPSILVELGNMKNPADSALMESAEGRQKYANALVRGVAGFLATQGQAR

T1 sequence (B1MFL7 entry or part of it): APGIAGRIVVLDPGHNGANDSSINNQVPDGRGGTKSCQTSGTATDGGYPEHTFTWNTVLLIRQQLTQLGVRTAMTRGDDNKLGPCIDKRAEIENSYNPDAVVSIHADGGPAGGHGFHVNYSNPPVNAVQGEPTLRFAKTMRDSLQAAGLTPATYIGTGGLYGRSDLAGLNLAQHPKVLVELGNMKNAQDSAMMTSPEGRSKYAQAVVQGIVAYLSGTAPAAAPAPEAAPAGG

Question: C[C@H](N)C(=O)N[C@H](CCC(=O)O)C(N)=O [L-Ala-D-IsoGln] (H-Ala-[dE]-NH2) was tested. Which “X-ray co-crystal structure, 1.7 Å” value (Ami1Mab [1]) did it give?
Answer: The co-crystal structure of Ami1Mab bound to L-Ala-D-IsoGln was also solved

Question: Which “inhibitory effect, starting at” value (Ami1Mab [2]) does the source give for O=C(O)c1coc2ccnc(Cl)c12 [compound 1, 4-chlorofuro [3,2-c]pyridine-3-carboxylic acid] here?
Answer: 150 to 200 µM

Question: How did the “inhibitory activity starting at” value (Ami1Mab [3]) turn out when Nc1ccccc1-c1nn[nH]n1 [compound 2, 2-(1H-1,2,3,4-tetrazol-5-yl)aniline] was run?
Answer: 800 µM

Question: How did the “inhibitory effect, starting between” value (Ami1Mab [4]) turn out when O=C(O)c1ccnc(Cl)c1C(=O)O [compound 3, 2-chloropyridine-3,4-dicarboxylic acid] was run?
Answer: 250 to 500 µM

Question: What does the source list for CC(=O)N[C@H]1C(O)O[C@H](CO)[C@@H](O)[C@@H]1O[C@H](C)C(=O)N[C@@H](C)C(=O)N[C@H](CCC(=O)O)C(N)=O (stereo partly drawn) [muramyl-dipeptide]?
Answer: TLC hydrolysis assay, ninhydrin (Ami1Mab [5]): MDP was rapidly hydrolyzed by Ami1Mab; TLC hydrolysis assay, ninhydrin (Ami1Mtb): Activity of both Ami1Mab and Ami1Mtb is inhibited after incubation with EDTA
